What was measured:
Granzyme B = assay: Biomarker (Granzyme-B) FACS analysis in tumour samples from the efficacy study; assay type: in vivo, Balb/c mice; details: 30 mg/kg TID, Day 22, vs vehicle and anti-PD1 antibody groups
Protocol: On Day 22, the animals from the efficacy study above were euthanized by overdose of gaseous anaesthesia and tumor samples were collected and their weights were recorded before evaluating for Granzyme-B by FACs analysis.
Approximately 100 mg of tissue samples were homogenized, and the single cell suspensions were fixed and permeabilized using Miltenyi Biotec and BD kit-based reagents before staining with anti-Granzyme-B antibodies. Cells were subjected to FACS analysis while using isotype controls to ensure the specific binding of antibody and unstained cells as a negative control. The result obtained were analyzed using Flow Jo software and represented in FIG. 2.

A2A receptor = molecular target: T1, A2A receptor (Homo sapiens, UniProt P29274); assay: A2aR antagonism IC50, cAMP TR-FRET (Lance Ultra) in HEK-293 cells, NECA as agonist; assay type: cell-based; details: A2AR IC50 (nM) (@5 nM NECA), HEK-293 cells expressing A2A receptor; agonist NECA 5 nM (EC90); inhibition of cAMP;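 also: compounds tested from 10 µM down to 0.08 nM in buffer with Rolipram at room temperature, TR-FRET cAMP signal read 1 h after adding Eu-cAMP tracer and ULight anti-cAMP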
T1 construct: host or cells: HEK-293

[1] = Pharmacokinetic study in mice; assay type: in vivo, CD1 mice
[2] = Plasma protein binding, equilibrium dialysis, mouse; assay type: in vitro ADME; details: plasma (10% plasma, extrapolated to 100% plasma), CD-1 plasma, 18 hours at 37° C.
Protocol: Protein binding is measured using the equilibrium dialysis technique. Compound is added to 10% plasma giving a concentration of 10 μM and dialysed with isotonic buffer for 18 hours at 37° C. The plasma and buffer solutions are analysed using generic LC UV/MS and the first apparent binding constant for the compound derived. The binding constant is then used to determine the % free in 100% plasma
The percentage of plasma bound/unbound fraction preparation was calculated as follows
[formula] [formula] where, • Tc=Total plasma concentration was determined by the calculated concentration on the plasma side of the chamber • Fc=[…] was determined by the calculated concentration on the buffer side of the chamber • To=Total compound concentration determined before analysis.

[3] = system: CT-26 syngeneic colon cancer; assay: In vivo efficacy on CT-26 syngeneic colon cancer mice model; parameters: species or system Balb/c mice; details: PO, TID; for Decrease in tumor volume: by day 22
Protocol: CT-26 syngeneic model of colon cancer in BALB/c is an established model and has been reported widely in literature for screening of compounds in efficacy studies for immune-oncology therapeutics.
CT-26 Cell line expansion and sub-culturing: CT26 (CT26·WT, ATCC® CRL-2638) is an N-nitroso-N-methylurethane-(NNMU) induced, undifferentiated colon carcinoma cell line derived from Mus musculus, mouse colon tissue. Cells were cultured using standard techniques in RPMI 1640 with 10% FBS and 1× penicillin—streptomycin solution at 37° C. with 5% CO2 in a suitable incubator. Cell density was determined using a hemocytometer upon harvest and the cells were prepared in 100 μL of cold PBS in a microfuge tube and kept on ice until use for inoculations.
Mice: All animal studies were conducted in accordance with an Institutional Animal Care and Use Committee. 6- to 8-week-old Balb/c mice were typically housed in sterilized suspended standard, polysulfone cages, with stainless steel top grills having facilities for holding pelleted food and drinking water in polycarbonate bottles with stainless steel sipper tubes and environment enrichment objects in the vivarium for two weeks prior to tumor cell injection. The same conditions were maintained throughout the subsequent tumor engraftment and treatment evaluation.
Tumor engraftment: All animals were inoculated with 5×10^5/mouse in 100 μL subcutaneously in the lower right flank. Tumor growth was monitored twice a week from Day 4 onwards using a calibrated digital vernier caliper and the tumor volume calculated using the formula, tumor volume (mm3)=length×(width) 2/2. Once tumor volume reaches 100±50 mm^3 on Day 12, all animals were randomized into respective treatment groups as per study plan. See Table 1 for details regarding the setup and dosing of animals. Tumor volume at the time of randomization was 90 mm^3 There was no statistical significance in tumor volume at the time of treatment initiation. Post randomization, animals were treated with the test substance for 21 days. The average tumor volume/size in the treatment group allowed to reach up to 2500 mm^3, beyond this tumor size the animals to be sacrificed humanely as per general guidelines.
Formulation and administration: Formulations were prepared with the components listed in Table 11 every day and mixed well before dosing each time and administered orally. The anti PD-1 antibody was administered via the intraperitoneal route.
Data is represented as Mean±SEM n=4-10, *p<0.05 Vs Vehicle, One-Way ANOVA followed by Dunnett's multiple comparison test. […] Significant decrease in tumor volume was observed on Day 18 and Day 22 compared to vehicle treatment.

T1 sequence (P29274 whole entry): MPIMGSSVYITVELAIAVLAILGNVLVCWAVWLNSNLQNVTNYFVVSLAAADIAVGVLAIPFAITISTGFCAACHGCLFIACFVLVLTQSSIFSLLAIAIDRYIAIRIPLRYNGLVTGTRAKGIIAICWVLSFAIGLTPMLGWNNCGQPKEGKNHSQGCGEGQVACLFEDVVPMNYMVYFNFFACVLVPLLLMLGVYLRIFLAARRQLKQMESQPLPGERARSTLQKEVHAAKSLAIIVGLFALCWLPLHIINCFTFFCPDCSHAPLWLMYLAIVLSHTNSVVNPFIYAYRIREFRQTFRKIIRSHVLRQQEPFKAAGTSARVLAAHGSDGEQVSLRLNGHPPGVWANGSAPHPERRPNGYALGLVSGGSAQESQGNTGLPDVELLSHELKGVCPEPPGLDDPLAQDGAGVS

Structure (SMILES)	Tumor Granzyme B expression (Granzyme B)	IC50 (A2A receptor)	Exposure after subcutaneous (SC) dose relative to oral route [1]	Cmax ([1]; CD1, mouse, plasma, sc, 10 mg/kg, s.c, 10 mg/kg, read-out: Cmax (head Co*/))	Tmax ([1]; CD1, mouse, plasma, sc, 10 mg/kg, s.c, 10 mg/kg, read-out: Tmax (head Tma))	fraction unbound at 18 h, 10 µM [2]	Change in tumor volume ([3]; 1 mg/kg, vs vehicle)	Decrease in tumor volume ([3]; 3 mg/kg)	Decrease in tumor volume ([3]; 10 mg/kg)	Decrease in tumor volume ([3]; 30 mg/kg)
Cc1cccc(CCNc2nc3c(C)c(C)nn3c(N)c2C#N)n1 [Example 13, 7-amino-5-((2-(6-methylpyridin-2-yl)ethyl)amino)-2,3-dimethylpyrazolo[1,5-a]pyrimidine-6-carbonitrile]	significant increase	0.25 nM	32 ×	1350 ng/mL	30 min	0.0933	did not show significant change in tumor volume	35%	35%	48%
CCc1c(C)nn2c(N)c(C#N)c(NCCc3ccn(C4(CO)CC4)n3)nc12 [Example 39, 7-amino-3-ethyl-5-((2-(1-(1-(hydroxymethyl)cyclopropyl)-1H-pyrazol-3-yl)ethyl)amino)-2-methylpyrazolo[1,5-a] pyrimidine-6-carbonitrile]		0.23 nM				0.125				

From patent US12577247B2 (BUGWORKS RESEARCH, INC., priority 2021, dated 2026)
